SMILES strings stand for the structures.

Drawing on US9051310B2, “Nicotinamide derivative or salt thereof” (FUJIFILM Corporation, priority 2011, dated 2015), this text covers IC50 for 26 compounds.

This experiment has as its target T1, glutathione S-transferase (GST)-linked full-length human Syk protein (Homo sapiens, UniProt P43405).
T1 construct: glutathione S-transferase (GST)-linked full-length human Syk protein; purchased Carna Biosciences; host or cells: Baculovirus expression system
Kind of experiment: Syk enzyme assay. To be noted: 0.83 nM Syk, time-resolved fluorescence; read-out: IC50 of Syk-inhibitory activity. The experiment is classed as biochemical. The method, then:
A glutathione S-transferase (GST)-linked full-length human Syk protein (Carna Biosciences), which had been generated using a Baculovirus expression system, was used in the Syk enzyme assay.
7.5 μl of a reaction solution (0.83 nM Syk, 20 mM HEPES, 10 mM MgCl2, 50 mM NaCl, 2 mM DTT, 0.05% BSA, pH 7.0) containing a Syk protein and a predetermined concentration of a test compound was shaken for 2 minutes, and it was then left at rest at room temperature for 13 minutes. Thereafter, 0.5 μM substrate peptide (Biotin-[…]-NH2) and 5 μL of a solution containing 67.5 μM ATP were added to the reaction solution, and the obtained mixture was then shaken for 2 minutes. The reaction solution was further left at rest at room temperature for 40 minutes, so as to carry out an enzyme reaction.
Thereafter, 50 μL of a reaction termination solution [60 nM APC-SA, 0.45 μg/mL Eu-PT66, 30 mM HEPES (pH 7.0), 150 mM KF, 30 mM EDTA, 0.15% BSA, 0.075% Tween20] containing Allophycocyanin-Streptavidin (APC-SA; PerkinElmer) and an Eu-W1024-labeled anti-phosphotyrosine PT66 antibody (Eu-PT66; PerkinElmer) was added to the reaction solution to terminate the enzyme reaction. At the same time, the reaction solution was left at rest at room temperature for 1 hour, so as to carry out an antigen-antibody reaction. Thereafter, using EnVision (PerkinElmer), the level of time-resolved fluorescence was measured at 615 nm and 665 nm, so that the phosphorylation of the substrate peptide was measured.
The following are used in Table 5 to denote standards for evaluating IC50 of Syk-inhibitory activity. • A: Up to 10 nM • B: 10 to 50 nM • C: 50 to 100 nM
Take `CCCC[C@@H](Nc1nc(Nc2ccc3c(c2)c(N(C)C)nn3C)c(C(N)=O)cc1F)[C@H](C)N` [Example 2-90, 6-(((2S,3R)-2-aminoheptan-3-yl)amino)-2-((3-(dimethylamino)-1-methyl-1H-indazol-5-yl)amino)-5-fluoronicotinamide]: the concentration for half-maximal inhibition (IC50) (as a rule, the concentration that gives 50% inhibition) was 10 to 50 nM.
On to `COc1ncc(Nc2nc(N[C@H](c3ccccc3)[C@H](C)N)c(F)cc2C(N)=O)cc1-n1ccnn1` [Example 2-336, 6-(((1R,2S)-2-amino-1-phenylpropyl)amino)-5-fluoro-2-((6-methoxy-5-(1H-1,2,3-triazol-1-yl)pyridin-3-yl)amino)nicotinamide], for which the IC50 is under 10 nM.
Next, `CC(C)[C@@H](Nc1nc(Nc2ccc3c(cnn3C)c2)c(C(N)=O)cc1F)[C@H](C)N` [Example 2-104, 6-(((2S,3R)-2-amino-4-methylpentan-3-yl)amino)-5-fluoro-2-((1-methyl-1H-indazol-5-yl)amino)nicotinamide]: 50 to 100 nM; `Cc1ncc(Nc2nc(N[C@H](Cc3ccccc3)[C@H](C)N)c(F)cc2C(N)=O)cc1-n1nccn1` [Example 2-422, 6-(((2R,3S)-3-amino-1-phenylbutan-2-yl)amino)-5-fluoro-2-((6-methyl-5-(2H-1,2,3-triazol-2-yl)pyridin-3-yl)amino)nicotinamide]: 10 to 50 nM; `CC[C@@H](Nc1nc(Nc2cc(F)cc3c2cnn3CC)c(C(N)=O)cc1F)[C@H](C)N` [Example 2-371, 6-(((2S,3R)-2-aminopentan-3-yl)amino)-2-((1-ethyl-6-fluoro-1H-indazol-4-yl)amino)-5-fluoronicotinamide]: under 10 nM.
Regarding `COc1cc(Nc2nc(N[C@H](c3ccccc3)[C@H](C)N)c(F)cc2C(N)=O)cc(OC)n1` [Example 2-356, 6-(((1R,2S)-2-amino-1-phenylpropyl)amino)-2-((2,6-dimethoxypyridin-4-yl)amino)-5-fluoronicotinamide], the IC50 is 10 to 50 nM.
For `CC[C@@H](Nc1nc(Nc2cnc(NC)c(F)c2)c(C(N)=O)cc1F)[C@H](C)N` [Example 2-276, 6-(((2S,3R)-2-aminopentan-3-yl)amino)-5-fluoro-2-((5-fluoro-6-(methylamino)pyridin-3-yl)amino)nicotinamide] the value was 10 to 50 nM; for `CCC[C@@H](Nc1nc(Nc2cnc(OCCOC)c(F)c2)c(C(N)=O)cc1F)[C@H](C)N` [Example 2-118, 6-(((2S,3R)-2-aminohexan-3-yl)amino)-5-fluoro-2-((5-fluoro-6-(2-methoxyethoxy)pyridin-3-yl)amino)nicotinamide], 50 to 100 nM.
As for `CC[C@@H](Nc1nc(Nc2ccc3c(c2)c(N2CCCC2)nn3C)c(C(N)=O)cc1F)[C@H](C)N` [Example 2-429, 6-(((2S,3R)-2-aminopentan-3-yl)amino)-5-fluoro-2-((1-methyl-3-(pyrrolidin-1-yl)-1H-indazol-5-yl)amino)nicotinamide], the IC50 was under 10 nM.
Next, `CC(C)C[C@@H](Nc1nc(Nc2cncc3c2cnn3CC(F)F)c(C(N)=O)cc1F)[C@H](C)N` [Example 2-400, 6-(((2S,3R)-2-amino-5-methylhexan-3-yl)amino)-2-((1-(2,2-difluoroethyl)-1H-pyrazolo[3,4-c]pyridin-4-yl)amino)-5-fluoronicotinamide]: under 10 nM.
For `C[C@H](N)[C@@H](Cc1ccccc1)Nc1nc(Nc2ccc3c(c2)c(N(C)C)nn3C)c(C(N)=O)cc1F` [Example 2-424, 6-(((2R,3S)-3-amino-1-phenylbutan-2-yl)amino)-2-((3-(dimethylamino)-1-methyl-1H-indazol-5-yl)amino)-5-fluoronicotinamide] the value was under 10 nM; for `COCCN(C)c1nn(C)c2ccc(Nc3nc(N[C@@H]4CCOC[C@@H]4N)c(F)cc3C(N)=O)cc12` [Example 2-457, 6-(((3R,4R)-3-aminotetrahydro-2H-pyran-4-yl)amino)-5-fluoro-2-((3-((2-methoxyethyl)(methyl)amino)-1-methyl-1H-indazol-5-yl)amino)nicotinamide], under 10 nM.
`CNc1ncc(Nc2nc(N[C@H](CC(C)C)[C@H](C)N)c(F)cc2C(N)=O)cc1F` [Example 2-278, 6-(((2S,3R)-2-amino-5-methylhexan-3-yl)amino)-5-fluoro-2-((5-fluoro-6-(methylamino)pyridin-3-yl)amino)nicotinamide]: the half-inhibitory concentration (IC50) was in the range of 10 to 50 nM.
Next, `COCCOc1ncc(Nc2nc(N[C@H](C3CC3)[C@H](C)N)c(F)cc2C(N)=O)cc1-n1nccn1` [Example 2-161, 6-(((1R,2S)-2-amino-1-cyclopropylpropyl)amino)-5-fluoro-2-((6-(2-methoxyethoxy)-5-(2H-1,2,3-triazol-2-yl)pyridin-3-yl)amino)nicotinamide]: 10 to 50 nM; `CCn1ncc2c(Nc3nc(N[C@H](c4ccc(Cl)s4)[C@H](C)N)c(F)cc3C(N)=O)cccc21` [Example 2-512, 6-(((1S,2S)-2-amino-1-(5-chlorothiophen-2-yl)propyl)amino)-2-((1-ethyl-1H-indazol-4-yl)amino)-5-fluoronicotinamide]: under 10 nM.
Next, `CC(C)C[C@@H](Nc1nc(Nc2ccc3c(c2)c(N(C)C)nn3C)c(C(N)=O)cc1F)[C@H](C)N` [Example 2-3, 6-(((2S,3R)-2-amino-5-methylhexan-3-yl)amino)-2-((3-(dimethylamino)-1-methyl-1H-indazol-5-yl)amino)-5-fluoronicotinamide]: under 10 nM; `Cc1cnn(-c2cncc(Nc3nc(N[C@H](C4CCC4)[C@H](C)N)c(F)cc3C(N)=O)c2)c1` [Example 2-523, 6-(((1R,2S)-2-amino-1-cyclobutylpropyl)amino)-5-fluoro-2-((5-(4-methyl-1H-pyrazol-1-yl)pyridin-3-yl)amino)nicotinamide]: under 10 nM.
For the compound `CC(C)C[C@@H](Nc1nc(Nc2cnc(N3CCOCC3)c(F)c2)c(C(N)=O)cc1F)[C@H](C)N` [Example 2-237, 6-(((2S,3R)-2-amino-5-methylhexan-3-yl)amino)-5-fluoro-2-((5-fluoro-6-morpholinopyridin-3-yl)amino)nicotinamide], the IC50 is 10 to 50 nM.
For `CN(C)c1nn(C)c2ccc(Nc3nc(N[C@@H]4CCOC[C@@H]4N)c(F)cc3C(N)=O)cc12` [Example 2-212, 6-(((3R,4R)-3-aminotetrahydro-2H-pyran-4-yl)amino)-2-((3-(dimethylamino)-1-methyl-1H-indazol-5-yl)amino)-5-fluoronicotinamide] the value was under 10 nM; for `COCCn1nc(N(C)C)c2cc(Nc3nc(N[C@H](C4CCC4)[C@H](C)N)c(F)cc3C(N)=O)ccc21` [Example 2-506, 6-(((1R,2S)-2-amino-1-cyclobutylpropyl)amino)-2-((3-(dimethylamino)-1-(2-methoxyethyl)-1H-indazol-5-yl)amino)-5-fluoronicotinamide], 10 to 50 nM.
For `COc1nn(C)c2ccc(Nc3nc(N[C@H](C(C)C)[C@H](C)N)c(F)cc3C(N)=O)cc12` [Example 2-81, 6-(((2S,3R)-2-amino-4-methylpentan-3-yl)amino)-5-fluoro-2-((3-methoxy-1-methyl-1H-indazol-5-yl)amino)nicotinamide] the value was 10 to 50 nM; for `CCn1ncc2ccc(Nc3nc(N[C@H](C(C)C)[C@H](C)N)c(F)cc3C(N)=O)cc21` [Example 2-103, 6-(((2S,3R)-2-amino-4-methylpentan-3-yl)amino)-2-((1-ethyl-1H-indazol-6-yl)amino)-5-fluoronicotinamide], 50 to 100 nM.
For `CCOc1ncc(Nc2nc(N[C@H](C3CCC3)[C@H](C)N)c(F)cc2C(N)=O)cc1-n1cccn1` [Example 2-168, 6-(((1R,2S)-2-amino-1-cyclobutylpropyl)amino)-2-((6-ethoxy-5-(1H-pyrazol-1-yl)pyridin-3-yl)amino)-5-fluoronicotinamide] the value was 10 to 50 nM; for `COCCNc1nn(CCOC)c2ccc(Nc3nc(N[C@@H]4CCCC[C@@H]4N)c(F)cc3C(N)=O)cc12` [Example 2-535, 6-(((1R,2S)-2-aminocyclohexyl)amino)-5-fluoro-2-((1-(2-methoxyethyl)-3-((2-methoxyethyl)amino)-1H-indazol-5-yl)amino)nicotinamide], 10 to 50 nM.
As for `CNc1n[nH]c2ccc(Nc3nc(N[C@@H]4CCCC[C@@H]4N)c(F)cc3C(N)=O)cc12` [Example 2-488, 6-(((1R,2S)-2-aminocyclohexyl)amino)-5-fluoro-2-((3-(methylamino)-1H-indazol-5-yl)amino)nicotinamide], the half-maximal inhibitory concentration (IC50) was under 10 nM.
Turning to `CC[C@@H](Nc1nc(Nc2ccc3c(c2)c(OC)nn3CC(F)F)c(C(N)=O)cc1F)[C@H](C)N` [Example 2-55, 6-(((2S,3R)-2-aminopentan-3-yl)amino)-2-((1-(2,2-difluoroethyl)-3-methoxy-1H-indazol-5-yl)amino)-5-fluoronicotinainide], the IC50 is under 10 nM.
